Assay results: ChEMBL document CHEMBL1201862, “PubChem BioAssay data set” (2004)
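How tested: cells in 96-well plates exposed to compound for 48 hours at five concentrations. The concentration for 50% growth inhibition is given as GI50.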 The source made the active and inactive calls. Rule as the data show it: active = GI50 up to about 1.1 µM and inactive = higher. Residues, ends and D or L forms follow the SMILES beside them. *: point of attachment. Fmoc = O=C(OCC1c2ccccc2-c2ccccc21)*; Boc = CC(C)(C)OC(=O)*

How the values were obtained:
Experiment in all cases: DTP human tumour cell line panel, 48 h
ACHN = system: ACHN
BT-549 = system: BT-549
CAKI-1 = system: CAKI-1
COLO 205 = system: COLO 205
DU-145 = system: DU-145
HOP-62 = system: HOP-62
MDA-MB-231 = system: MDA-MB-231
MOLT-4 = system: MOLT-4
NCI-H226 = system: NCI-H226
NCI-H23 = system: NCI-H23
NCI-H522 = system: NCI-H522
NCI/ADR-RES = system: NCI/ADR-RES
OVCAR-3 = system: OVCAR-3
OVCAR-8 = system: OVCAR-8
RPMI-8226 = system: RPMI-8226
SK-MEL-28 = system: SK-MEL-28
SK-OV-3 = system: SK-OV-3
SW-620 = system: SW-620
T47D = system: T47D
UO-31 = system: UO-31

Row | SMILES | GI50 (ACHN) | GI50 (BT-549) | GI50 (CAKI-1) | GI50 (COLO 205) | GI50 (DU-145) | GI50 (HOP-62) | GI50 (MDA-MB-231) | GI50 (MOLT-4) | GI50 (NCI-H226) | GI50 (NCI-H23) | GI50 (NCI-H522) | GI50 (NCI/ADR-RES) | GI50 (OVCAR-3) | GI50 (OVCAR-8) | GI50 (RPMI-8226) | GI50 (SK-MEL-28) | GI50 (SK-OV-3) | GI50 (SW-620) | GI50 (T47D) | GI50 (UO-31)
1 | c1ccc(-c2cc(-c3cc(-c4ccccn4)[nH]n3)n[nH]2)nc1 | > 100 µM (inactive) | > 100 µM (inactive) | > 100 µM (inactive) | > 100 µM (inactive) | 95.7 µM (inactive) | 92.9 µM (inactive) | > 100 µM (inactive) | 33.3 µM (inactive) | > 100 µM (inactive) | 95.5 µM (inactive) | > 100 µM (inactive) | 44.5 µM (inactive) | 74.1 µM (inactive) | > 100 µM (inactive) | 70.6 µM (inactive) | > 100 µM (inactive) | > 100 µM (inactive) | > 100 µM (inactive) | 80.4 µM (inactive) | 22.6 µM (inactive)
2 | CCN(CC(O)COc1ccc2c(c1)[n+]([O-])nc(N)[n+]2[O-])C(C)=O (stereo not given) | > 100 µM (inactive) | > 100 µM (inactive) | > 100 µM (inactive) | 3.7 µM (inactive) | > 100 µM (inactive) | > 100 µM (inactive) | > 100 µM (inactive) | 39 µM (inactive) | > 100 µM (inactive) | 91.2 µM (inactive) | 31.1 µM (inactive) | > 100 µM (inactive) | > 100 µM (inactive) | 59.3 µM (inactive) | > 100 µM (inactive) | > 100 µM (inactive) | > 100 µM (inactive) | > 100 µM (inactive) | 20.2 µM (inactive) | > 100 µM (inactive)
3 | COC(=O)/C(=C(\C)NC(C)=O)c1c(C(=O)OC)[nH]c2ccccc12 | > 100 µM (inactive) | > 100 µM (inactive) | > 100 µM (inactive) | > 100 µM (inactive) | > 100 µM (inactive) | > 100 µM (inactive) | > 100 µM (inactive) | > 100 µM (inactive) | > 100 µM (inactive) | > 100 µM (inactive) | 95.3 µM (inactive) | > 100 µM (inactive) | > 100 µM (inactive) | > 100 µM (inactive) | > 100 µM (inactive) | > 100 µM (inactive) | > 100 µM (inactive) | > 100 µM (inactive) | > 100 µM (inactive) | > 100 µM (inactive)
4 | CC(C)(C)OC(=O)NCCCCC(NC(=O)C(Cc1c[nH]c2ccccc12)NC(=O)OCC1c2ccccc2-c2ccccc21)C(=O)N1CCCC1C(=O)NCC(N)=O (stereo not given) (Fmoc-WK(Boc)PG-NH2; configuration not given here) | > 100 µM (inactive) | > 100 µM (inactive) | > 100 µM (inactive) | > 100 µM (inactive) | > 100 µM (inactive) | > 100 µM (inactive) | 42.5 µM (inactive) | > 100 µM (inactive) | > 100 µM (inactive) | > 100 µM (inactive) | > 100 µM (inactive) | > 100 µM (inactive) | > 100 µM (inactive) | > 100 µM (inactive) | > 100 µM (inactive) | > 100 µM (inactive) | 1.59 µM (inactive) | > 100 µM (inactive) | > 100 µM (inactive) | > 100 µM (inactive)
5 | COC(=O)c1ccccc1C#CC#Cc1ccccc1C(=O)OC | > 10 µM (inactive) | > 10 µM (inactive) | > 10 µM (inactive) | 1.69 µM (inactive) | > 10 µM (inactive) | > 10 µM (inactive) | > 10 µM (inactive) | > 10 µM (inactive) | 5.48 µM (inactive) | > 10 µM (inactive) | > 10 µM (inactive) | > 10 µM (inactive) | 2.55 µM (inactive) | 6.21 µM (inactive) | > 10 µM (inactive) | > 10 µM (inactive) | > 10 µM (inactive) | > 10 µM (inactive) | > 10 µM (inactive) | > 10 µM (inactive)
6 | O=C1c2ccccc2-c2nnc3c(c21)Cc1ccccc1C3 | > 10 µM (inactive) | > 10 µM (inactive) | > 10 µM (inactive) | > 10 µM (inactive) | > 10 µM (inactive) | > 10 µM (inactive) | > 10 µM (inactive) | > 10 µM (inactive) | > 10 µM (inactive) | > 10 µM (inactive) | > 10 µM (inactive) | > 10 µM (inactive) | > 10 µM (inactive) | > 10 µM (inactive) | > 10 µM (inactive) | > 10 µM (inactive) | > 10 µM (inactive) | > 10 µM (inactive) | > 10 µM (inactive) | > 10 µM (inactive)
7 | CCOC(=O)/C=C/CCO[Si](C)(C)C(C)(C)C | > 100 µM (inactive) | > 100 µM (inactive) | > 100 µM (inactive) | > 100 µM (inactive) | > 100 µM (inactive) | > 100 µM (inactive) | > 100 µM (inactive) | > 100 µM (inactive) | > 100 µM (inactive) | > 100 µM (inactive) | > 100 µM (inactive) | > 100 µM (inactive) | > 100 µM (inactive) | > 100 µM (inactive) | > 100 µM (inactive) | > 100 µM (inactive) | > 100 µM (inactive) | > 100 µM (inactive) | > 100 µM (inactive) | > 100 µM (inactive)
8 | CC(NNC(=O)c1ccncc1)c1ccc(Cl)c(Cl)c1 (stereo not given) | > 100 µM (inactive) | > 100 µM (inactive) | > 100 µM (inactive) | > 100 µM (inactive) | > 100 µM (inactive) | > 100 µM (inactive) | > 100 µM (inactive) | 48.9 µM (inactive) | > 100 µM (inactive) | 57.7 µM (inactive) | > 100 µM (inactive) | > 100 µM (inactive) | > 100 µM (inactive) | > 100 µM (inactive) | 75.5 µM (inactive) | > 100 µM (inactive) | 19.6 µM (inactive) | > 100 µM (inactive) | 66.4 µM (inactive) | 54.6 µM (inactive)
9 | O=C1NC(Cc2c[nH]c3ccccc23)C(=O)N2C(c3ccccc3)c3[nH]c4ccccc4c3C[C@@H]12 (stereo not given in full) | 29.4 µM (inactive) | 21.1 µM (inactive) | 25.5 µM (inactive) | 21.1 µM (inactive) | 32.3 µM (inactive) | 17.2 µM (inactive) | 20.6 µM (inactive) | 12.6 µM (inactive) | 35.6 µM (inactive) | 27.7 µM (inactive) | 18.1 µM (inactive) | 21.6 µM (inactive) | 15.5 µM (inactive) | 31.3 µM (inactive) | 20 µM (inactive) | 29.7 µM (inactive) | 31.3 µM (inactive) | 31.9 µM (inactive) | 24.4 µM (inactive) | 23.5 µM (inactive)
10 | CC1=NN(C(=O)CC(=O)Nc2ccc(Cl)cc2)C(=O)C1/N=N\c1ccc(S(=O)(=O)c2ccc(/N=N/C3C(=O)N(C(=O)CC(=O)Nc4ccc(Cl)cc4)N=C3C)cc2)cc1 (stereo not given) | 24.7 µM (inactive) | > 100 µM (inactive) | > 100 µM (inactive) | > 100 µM (inactive) | > 100 µM (inactive) | 54.5 µM (inactive) | 51.9 µM (inactive) | > 100 µM (inactive) | > 100 µM (inactive) | > 100 µM (inactive) | > 100 µM (inactive) | > 100 µM (inactive) | > 100 µM (inactive) | > 100 µM (inactive) | > 100 µM (inactive) | > 100 µM (inactive) | > 100 µM (inactive) | > 100 µM (inactive) | > 100 µM (inactive) | > 100 µM (inactive)
11 | Cc1cc(O)c2c(c1)C(=O)C=C(Br)C2=O | 15.6 µM (inactive) | 16.9 µM (inactive) | 12.5 µM (inactive) | 6.32 µM (inactive) | 12.4 µM (inactive) | > 63.5 µM (inactive) | 16.9 µM (inactive) | 0.52 µM (active) | 19.2 µM (inactive) | 17.1 µM (inactive) | 2.94 µM (inactive) | 19.2 µM (inactive) | 16.7 µM (inactive) | 19.6 µM (inactive) | 6.75 µM (inactive) | 15.4 µM (inactive) | > 100 µM (inactive) | 3.42 µM (inactive) | 5.68 µM (inactive) | 15.5 µM (inactive)
